One experiment has as its target T1, hCRHR1 (Homo sapiens, UniProt P34998).
T1 sequence (P34998 24-415): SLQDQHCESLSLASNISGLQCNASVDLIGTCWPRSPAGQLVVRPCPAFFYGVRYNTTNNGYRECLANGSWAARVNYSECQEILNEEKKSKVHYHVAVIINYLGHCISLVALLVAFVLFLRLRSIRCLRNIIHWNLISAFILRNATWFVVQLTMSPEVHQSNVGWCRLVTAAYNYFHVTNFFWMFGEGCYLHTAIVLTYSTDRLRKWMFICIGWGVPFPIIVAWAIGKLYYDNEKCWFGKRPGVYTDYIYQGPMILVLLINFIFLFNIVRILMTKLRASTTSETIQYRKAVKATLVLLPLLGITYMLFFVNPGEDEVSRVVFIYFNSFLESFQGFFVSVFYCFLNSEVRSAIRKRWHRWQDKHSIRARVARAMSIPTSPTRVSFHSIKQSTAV
Briefly: HTRF cAMP assay, determination of hCRHR1 potency (peptide libraries 5 conc., purified peptides 11 conc.). Type of experiment: cell-based. Particulars: Table 4, library peptides having X^38 = Nle; read-out: hCRHR1 pEC50 (converted). In short, it runs like this: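 Cellular cAMP was read by time-resolved FRET between d2-labelled cAMP and cryptate anti-cAMP antibody. The cells were freshly thawed suspension CHO-K1 cells stably expressing human CRHR1.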
(TR-FRET usually uses a lanthanide donor and a delayed reading to cut background.)

A further experiment has as its target T2, hCRHR2 (Homo sapiens, UniProt Q13324).
T2 sequence (Q13324 1-411): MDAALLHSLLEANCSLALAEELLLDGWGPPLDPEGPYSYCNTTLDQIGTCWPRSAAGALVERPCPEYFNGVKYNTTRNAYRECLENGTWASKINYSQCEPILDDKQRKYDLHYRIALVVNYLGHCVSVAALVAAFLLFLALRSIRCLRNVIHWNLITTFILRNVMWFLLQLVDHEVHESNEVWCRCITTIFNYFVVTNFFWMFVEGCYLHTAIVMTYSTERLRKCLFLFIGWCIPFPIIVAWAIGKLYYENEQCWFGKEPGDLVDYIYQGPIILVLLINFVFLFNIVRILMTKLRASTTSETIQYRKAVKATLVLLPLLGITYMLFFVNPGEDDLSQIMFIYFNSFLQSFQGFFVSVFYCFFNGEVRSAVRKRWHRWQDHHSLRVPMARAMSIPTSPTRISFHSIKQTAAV
Briefly: HTRF cAMP assay, determination of hCRHR2 potency (peptide libraries 5 conc., purified peptides 11 conc.). Type of experiment: cell-based. Conditions: Table 4, library peptides having X^38 = Nle; read-out: hCRHR2 pEC50 (converted). In a few lines: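 Frozen stocks of hCRHR2-expressing CHO-K1 cells, thawed just before testing, received peptide agonists in suspension; cAMP quantified by competitive HTRF immunoassay, with curves fitted by nonlinear regression (variable slope) for EC50.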

Starred links: 1 amine or outer side, 2 acyl side, 3 side chain; linkers in the order of their positions; H or OH if unused. Non-standard residues stand in square brackets, D forms with d. Residues, ends and D or L forms follow the SMILES beside them. Groups on a side chain read outwards from the residue. *: point of attachment. C20 diacid = O=C(O)CCCCCCCCCCCCCCCCCCC(=O)*; γGlu = O=C(O)[C@H](CCC(=O)[*:2])N[*:1]; NMeI = CC[C@H](C)[C@H](NC)C(=O)O; Nle = CCCC[C@H](N)C(=O)O; AEEA = NCCOCCOCC(=O)O; Aib = CC(C)(N)C(=O)O

Take `CCCC[C@H](NC(=O)[C@@H](NC(=O)[C@H](CCC(=O)O)NC(=O)[C@H](C)NC(=O)[C@H](CC(N)=O)NC(=O)C(C)(C)NC(=O)[C@H](CCCCNC(=O)COCCOCCNC(=O)COCCOCCNC(=O)CC[C@H](NC(=O)CC[C@H](NC(=O)CCCCCCCCCCCCCCCCCCC(=O)O)C(=O)O)C(=O)O)NC(=O)[C@H](C)NC(=O)[C@H](CCC(N)=O)NC(=O)[C@H](CCC(=O)O)NC(=O)[C@H](CCCNC(=N)N)NC(=O)[C@H](C)NC(=O)[C@H](C)NC(=O)[C@H](CCCNC(=N)N)NC(=O)[C@H](C)NC(=O)[C@H](CCCNC(=N)N)NC(=O)[C@H](C)NC(=O)[C@H](CCC(N)=O)NC(=O)[C@H](CCCCN)NC(=O)[C@H](CC(C)C)NC(=O)[C@H](CC(C)C)NC(=O)[C@@H](NC(=O)[C@H](CCC(N)=O)NC(=O)[C@H](CC(C)C)NC(=O)[C@H](CC(C)C)NC(=O)CNC(=O)[C@@H](NC(=O)[C@@H]1CCCN1C(=O)[C@@H](NC(=O)[C@H](CC(=O)O)NC(=O)[C@H](CC(C)C)NC(=O)[C@H](CO)NC(=O)[C@H](CC(C)C)NC(=O)[C@@H](NC(=O)[C@@H](NC)[C@@H](C)CC)C(C)C)C(C)C)[C@@H](C)CC)[C@@H](C)CC)[C@@H](C)CC)C(=O)N[C@@H](C)C(=O)N[C@@H](CCC(=O)O)C(=O)N[C@H](C(N)=O)C(C)C` [compound 233] (H-[NMeI]VLSLDVPIGLLQILLKQARARAAREQAK([AEEA-AEEA-γGlu-γGlu-C20 diacid])[Aib]NAEI[Nle]AEV-NH2): the EC50 at hCRHR1 was 3160 nM; on hCRHR2 it was 0.0398 nM.

Consider `CCCC[C@H](NC(=O)[C@@H](NC(=O)[C@H](CCC(=O)O)NC(=O)[C@H](C)NC(=O)[C@H](CC(N)=O)NC(=O)C(C)(C)NC(=O)[C@H](CCCCNC(=O)COCCOCCNC(=O)COCCOCCNC(=O)CC[C@H](NC(=O)CC[C@H](NC(=O)CCCCCCCCCCCCCCCCCCC(=O)O)C(=O)O)C(=O)O)NC(=O)[C@H](C)NC(=O)[C@H](CCC(N)=O)NC(=O)[C@H](CCC(=O)O)NC(=O)[C@H](CCCNC(=N)N)NC(=O)[C@H](C)NC(=O)[C@H](C)NC(=O)[C@H](CCCNC(=N)N)NC(=O)[C@H](C)NC(=O)[C@H](CCCNC(=N)N)NC(=O)[C@H](C)NC(=O)[C@H](CCC(N)=O)NC(=O)[C@H](C)NC(=O)[C@H](CC(C)C)NC(=O)[C@H](CC(C)C)NC(=O)[C@@H](NC(=O)[C@H](CCC(N)=O)NC(=O)[C@H](CC(C)C)NC(=O)[C@H](CC(C)C)NC(=O)CNC(=O)[C@@H](NC(=O)[C@@H]1CCCN1C(=O)[C@@H](NC(=O)[C@H](CC(=O)O)NC(=O)[C@H](CC(C)C)NC(=O)[C@H](CO)NC(=O)[C@H](CC(C)C)NC(=O)[C@@H](NC(=O)[C@@H](NC)[C@@H](C)CC)C(C)C)C(C)C)[C@@H](C)CC)[C@@H](C)CC)[C@@H](C)CC)C(=O)N[C@@H](C)C(=O)N[C@@H](CCC(=O)O)C(=O)N[C@H](C(N)=O)C(C)C` [compound 119] (H-[NMeI]VLSLDVPIGLLQILLAQARARAAREQAK([AEEA-AEEA-γGlu-γGlu-C20 diacid])[Aib]NAEI[Nle]AEV-NH2), for which the EC50 on hCRHR1 was 1000 nM; on hCRHR2, 0.02 nM.

Source of the values: patent publication EP4810052A2, “HCRHR2 SELECTIVE POLYPEPTIDES” (Gubra A/S, priority 2023, dated 2026).
